Columns and labels:
[1] = Inhibition of full length human recombinant Endoplasmic reticulum alpha-glucosidase 1 expressed in Escherichia coli using trisaccharide as substrate incubated for 60 mins
[2] = Inhibition of full length N-terminal his6-tagged mouse recombinant Endoplasmic reticulum alpha-glucosidase 2 expressed in DH10 Escherichia coli using Fluorogenic 1,4-methyl-lumbelliferon as substrate preincubated for 60 mins followed by substrate addition and measured after 30 mins
[3] = Cytotoxicity against African green monkey Vero cells assessed as reduction in cell viability incubated for 3 to 5 days by Cell titer-glo luminescent assay; assay type: toxicity, cell-based; details: chlorocebus sabaeus, time 3-5 day
SARS-CoV-2 = experiment: Antiviral activity against SARS-CoV-2 England/2/2022 assessed as reduction in viral infection; assay type: functional, organism-based; details: Severe acute respiratory syndrome coronavirus 2, England/2/2022
[4] = Selectivity index, ratio of CC50 for cytotoxicity against African green monkey Vero cells to IC50 for antiviral activity against DENV New Guinea C strain infected in African green monkey Vero cells; assay type: toxicity, cell-based; details: read-out: Ratio CC50/IC50
Dengue virus type 2 = experiment: Antiviral activity against DENV New Guinea C strain infected in African green monkey Vero cells assessed as reduction in viral infection measured after 5 days by plaque assay; details: 120 h

| Compound | IC50 [1] | IC50 [2] | CC50 [3] | IC50 (SARS-CoV-2) | selectivity ratio [4] | IC50 (Dengue virus type 2) |
| --- | --- | --- | --- | --- | --- | --- |
| O=[N+]([O-])c1cc(-n2nccn2)ccc1NCCCCCCN[C@H]1C[C@](O)(CO)[C@@H](O)[C@H](O)[C@H]1O | 0.0479 µM | < 0.001 µM | 126 µM | > 100 µM | 6.9 | 18.2 µM |
| COCCCCCCCCCN[C@H]1C[C@](O)(CO)[C@@H](O)[C@H](O)[C@H]1O | 10.8 µM | 0.49 µM | 1070 µM | 270 µM | – | 75.9 µM |
| CCCCN1C[C@H](O)[C@@H](O)[C@H](O)[C@H]1CO | – | – | – | 42.2 µM | – | – |
| CCCCN[C@H]1C[C@](O)(CO)[C@@H](O)[C@H](O)[C@H]1O | 29.5 µM | – | > 1000 µM | – | – | 158 µM |
| [N-]=[N+]=Nc1ccc(NCCOCCN[C@H]2C[C@](O)(CO)[C@@H](O)[C@H](O)[C@H]2O)c([N+](=O)[O-])c1 | 3.66 µM | 37 µM | 1750 µM | – | – | 293 µM |
| O=[N+]([O-])c1cc(-n2ccnn2)ccc1NCCCCCCN[C@H]1C[C@](O)(CO)[C@@H](O)[C@H](O)[C@H]1O | 1.27 µM | 0.0155 µM | 1380 µM | 292 µM | 102 | 13.5 µM |
| O=[N+]([O-])c1cc(-n2cnnn2)ccc1NCCCCCCN[C@H]1C[C@](O)(CO)[C@@H](O)[C@H](O)[C@H]1O | 32 µM | 1.42 µM | 1360 µM | – | – | > 1000 µM |
| [N-]=[N+]=Nc1ccc(NCCCCN[C@H]2C[C@](O)(CO)[C@@H](O)[C@H](O)[C@H]2O)c([N+](=O)[O-])c1 | 2.42 µM | 1.01 µM | 1020 µM | 9.48 µM | – | 61.4 µM |
| [N-]=[N+]=Nc1ccc(NCCOC(=O)NCCN[C@H]2C[C@](O)(CO)[C@@H](O)[C@H](O)[C@H]2O)c([N+](=O)[O-])c1 | 1.13 µM | – | > 1000 µM | 53.7 µM | – | > 1000 µM |
| O=[N+]([O-])c1cc(-c2ncccn2)ccc1NCCCCCCN[C@H]1C[C@](O)(CO)[C@@H](O)[C@H](O)[C@H]1O | 0.644 µM | 0.0011 µM | 762 µM | 70 µM | – | 105 µM |
| N[C@H]1C[C@](O)(CO)[C@@H](O)[C@H](O)[C@H]1O [VALIOLAMINE] | 87.4 µM | > 100 µM | 831 µM | > 1000 µM | – | > 1000 µM |
| [N-]=[N+]=Nc1ccc(NCCCCCCN[C@H]2C[C@](O)(CO)[C@@H](O)[C@H](O)[C@H]2O)c([N+](=O)[O-])c1 | 0.73 µM | 0.0337 µM | 122 µM | 12.3 µM | 88 | 1.38 µM |
